Results published in patent US10265297B2 (Council of Scientific & Industrial Research, priority 2016, dated 2019).
Marks after values point to notes of the source that are not given here.

Legend:
[1] = tested on: ovariectomized Sprague Dawley rats; test: Ovariectomized (OVx) rats: trabecular microarchitecture of femur and uterine weight; assay type: in vivo; conditions: for BV/TV / Po (tot) (Total porosity percent) / SMI / Tb.No / Tb.Pf (Trabecular pattern factor) / Tb.Sp: femur epiphysis
Procedure: The study was conducted in accordance with current legislation on animal experiments [Institutional Animal Ethical Committee (IAEC)] at C.D.R.I. […] Sprague Dawley rats weighing ˜180-200 gm were either bilaterally ovariectomized (OVx) or exposed to a sham surgical procedure. All rats were individually housed at 21° C., in 12-h light:12-h dark cycles. All rats had excess to normal chow diet and water ad libitum. After OVx, the rats were left for 12 weeks to develop osteopenia. After 12 weeks, extract treatment in the form of gavage (50.0 mg and 100 mg/kg body weight), and iPTH 30 μg·kg^−1 three times a week was given daily. Equal numbers of OVx and sham operated rats served as the control, and were given vehicle (20% ethanol). The rats were weighed each week. At the end of 12 weeks, urine was to be collected for biochemical assessment therefore the rats were caged individually in plastic cages fitted with steel mesh for a total period of 48 h preceding autopsy and had free access to normal chow diet and water for the first 24 h initially for of acclimatization and then during the next 24 h, animals received only water ad libitum. After twenty-four hours of fasting urine samples were collected in fresh containers, centrifuged at 2000 rpm at room temperature and stored at […] until analyzed. Rats were then euthanized. At autopsy, blood samples were collected by cardiac puncture in tubes. Uteri were carefully excised, gently blotted, weighed, and fixed for histology and histomorphometry. About 5 mm pieces from the middle segment of each uterus were dehydrated in ascending grades of ethanol, cleared in xylene, and embedded in paraffin wax using standard procedures. Photomicrographs of sections were obtained using a Leica DC 300 camera and Leica IM50 Image Acquisition software fitted to a Leica DMLB microscope. Histomorphometric measurements were done using Leica Qwin-Semiautomatic image Analysis software. μCT (both 2-D and 3-D) determination of excised bones was carried out using the Sky Scan 1076 μCT scanner (Aartselaar, Belgium) using the cone-beam reconstruction software version 2.6 based on the Feldkamp algorithm (Skyscan).
Trabecular response to FSE treatment of OVx rats was quantified at the femur epiphysis. […] Efficacy of OVx was confirmed by studying uterine weight. […] OVx group had reduced uterine weight as compared with the ovary intact, sham group. […] E2 increased uterine weight in OVx rats equal to the sham group.

[2] = Oral pharmacokinetics in male Sprague Dawley rats; assay type: in vivo; conditions: rat, serum, 250 mg/kg; for Vd/F: read-out: Vss/F
calvarial osteoblasts = test: Mineralization (Alizarin Red-S) in calvarial osteoblasts; assay type: cell-based; conditions: various concentration, 18 days, compared to untreated cells
Procedure: FIG. 5A-5C: Activity of the compound C003/K008 isolated from the extract was assessed by measuring ALP activity in calvarial osteoblast cells. At the end of the experiment, ALP activity was measured colorimetrically. […] (*p<0.05, **p<0.01 and ***p<0.001 when compared with control). Calvarial osteoblasts were treated with compound C003/K008 at various concentration for 18 days to induce mineralization. […] Values are expressed as mean±SEM. ***p<0.001 and *p<0.05 when compared with control (untreated cells).
Compound (2492/K008) was isolated from butanolic fraction and alkaline phosphatase activity and mineralization in calvarial osteoblast cells assessed with different concentrations of the test compound or vehicle for 48 hrs in growth medium supplemented with 10 mM β-glycerophosphate and 50 μg/ml ascorbic acid. At the end of incubation period, cells were washed with PBS and kept in −80° C. for 30 min and then at 37° C. for 30 min. ALP activity was measured using p-nitrophenylphosphate (PNPP) as substrate and absorbance was read at 405 nm. SE increased the alkaline phosphatase activity from doses ranging from […] as compared to the control with ˜2.0 fold increase in the ALP activity at 1 μM.

[3] = tested on: drill-hole injury in femur of adult female Sprague Dawley rats; test: Drill hole model for fracture healing (micro-CT, calcein labeling, qPCR); assay type: in vivo; conditions: 30 μg/kg s.c. injection
Procedure: Drill-hole injury was created in the mid femur region 1 cm above the knee joint by inserting a drill hole of diameter 0.8 mm in the anterior portion of the diaphysis of the bilateral femurs. Treatment was started next day of injury and continued for 14 days. Each animal received intraperitoneal administration of fluorochrome calcein(20 mg/kg) 24 h before autopsy. After 14 days of treatment, animals were sacrificed and autopsied to collect their femurs for the measurement of bone micro-architectural parameters. Bones were embedded inacrylic material and […] sections were made using an Isomet BoneCutter (Buehler, Lake Bluff, Ill., USA) and photographs taken under confocal microscope LSM 510 Meta, Carl Zeiss, Maple Grove, Minn., USA) aided with appropriate filters. The intensity of calcein binding, was calculated using Carl Zeiss AM 4.2 image-analysis software.
(A) In vivo regeneration of bone to monitor local repair process was done using micro-CT after creation of the hole using on femur of 0.8 mm diameter. […] Modest mineralized calluses appeared at defect and intra-medulla region of treated groups. By day 14, extent of callus mineralization increased, in the intra-medulla region.
The model was made as described above and then treatment of extract and Formulated Spinacea Extraxt (FSE) was started at doses of 250 and 750 mg·kg^−1·day^−1 from the next day of injury and continued for 14 days. After 14 days of treatment as described above, animals were sacrificed and autopsied to collect their femurs for the measurement of bonemicro architectural parameters at the drill-hole site. Bones were embedded inacrylic material and […] sections were made using an Isomet BoneCutter (Buehler, Lake Bluff, Ill., USA) and photographs taken under confocal microscope LSM 510 Meta, Carl Zeiss, Maple Grove, Minn., USA) aided with appropriate filters. The intensity of calcein binding, which is an indicator of the amount of new mineral deposition, was calculated using Carl Zeiss AM 4.2 image-analysis software. […]

**Q.** What does the source list for C[C@]12CC[C@@H]3c4ccc(O)cc4CC[C@H]3[C@@H]1CC[C@@H]2O [Compound E2]?
**A.** Uteriewt ([1]; Ovx + E2 (0.1 mgkg^−1day^−1)): 329.63 ± 30.44 mg; BV/TV ([1]; Ovx + E2 (0.1 mgkg^−1day^−1)): 15.97 ± 1.88 %; Po (tot) (Total porosity percent) ([1]; Ovx + E2 (0.1 mgkg^−1day^−1)): 85.24 ± 2.07%; SMI ([1]; Ovx + E2 (0.1 mgkg^−1day^−1)): 1.67 ± 0.04; Tb.No ([1]; Ovx + E2 (0.1 mgkg^−1day^−1)): 1.61 ± 0.23** mm^−1; Tb.Pf (Trabecular pattern factor) ([1]; Ovx + E2 (0.1 mgkg^−1day^−1)): 6.22 ± 0.72; Tb.Sp ([1]; Ovx + E2 (0.1 mgkg^−1day^−1)): 0.76 ± 0.1 mm

**Q.** Which AUC(0-t) [2] does the source give for COc1c(-c2ccc(O)c(O)c2)oc2cc3c(c(O)c2c1=O)OCO3 [Compound K007, 5,3′,4′-trihydroxy-3-methoxy-6,7-methylenedioxy-flavone] here?
**A.** The AUC(0-t) was 39 ng·h/mL.

**Q.** And the CL/F [2]?
**A.** Its CL/F is 213 mL/min/kg.

**Q.** And the Cmax [2]?
**A.** Its Cmax is 7.6 ng/mL.

**Q.** And the MRT [2]?
**A.** Its MRT is 3.4 h.

**Q.** What about the Tmax [2] of the same compound?
**A.** Its Tmax is 2 h.

**Q.** And the Vd/F [2]?
**A.** Its Vd/F is 43.3 L/kg.

**Q.** Which AUC(0-t) [2] does the source give for COc1c(O)cc2oc(-c3ccc(O)c(O)c3)c(OC)c(=O)c2c1O [Compound K008, 5,7,3′,4′-tetrahydroxy-3,6-dimethoxy-flavone] here?
**A.** The AUC(0-t) was 23.3 ng·h/mL.

**Q.** What about the CL/F [2] of the same compound?
**A.** Its CL/F is 23.3 mL/min/kg.

**Q.** What about the Cmax [2] of the same compound?
**A.** Its Cmax is 5 ng/mL.

**Q.** What about the MRT [2] of the same compound?
**A.** The MRT was 3.9 h.

**Q.** And the Tmax [2]?
**A.** The Tmax was 2 h.

**Q.** What about the Vd/F [2] of the same compound?
**A.** Its Vd/F is 5.6 L/kg.

**Q.** And the “formation of mineralized nodules (Alizarin Red-S)” value (calvarial osteoblasts)?
**A.** The value was “increased formation of mineralized nodules”.

**Q.** Which BV/TV [3] does the source give for “PTH: parathyroid hormone, standard marketed anabolic drug, injectable” here?
**A.** The BV/TV was 60.3 ± 1.91 %.

**Q.** And the Calcein intensity [3]?
**A.** The Calcein intensity was 15.3 ± .055 %.

**Q.** And the “SMI (Index)” value [3]?
**A.** Its value is 0.65 ± 0.07.

**Q.** What about the Uteriewt ([1]; Ovx + PTH (30 μg/kg bw)) of the same compound?
**A.** The Uteriewt was 91.18 ± 3.84 mg.

**Q.** What about the BV/TV ([1]; Ovx + PTH (30 μg/kg bw)) of the same compound?
**A.** Its BV/TV is 22.78 ± 1.76 %.

**Q.** What about the “Po (tot) (Total porosity percent)” value ([1]; Ovx + PTH (30 μg/kg bw)) of the same compound?
**A.** Its value is 76.79 ± 2.35 %.

**Q.** What about the SMI ([1]; Ovx + PTH (30 μg/kg bw)) of the same compound?
**A.** Its SMI is 1.26 ± 0.18.

**Q.** And the Tb.No ([1]; Ovx + PTH (30 μg/kg bw))?
**A.** The Tb.No was 2.43 ± 0.19*** mm^−1.

**Q.** And the “Tb.Pf (Trabecular pattern factor)” value ([1]; Ovx + PTH (30 μg/kg bw))?
**A.** The value was 5.31 ± 0.68.

**Q.** What about the Tb.Sp ([1]; Ovx + PTH (30 μg/kg bw)) of the same compound?
**A.** The Tb.Sp was 0.63 ± 0.07 mm.
